One data set has as its system 451Lu (melanoma) cells. Nature of the data set: Bafilomycin clamp experiment (autophagic flux). In kind it is cell-based. Conditions: 3 μM, with or without bafilomycin-A1, 24 hours.
Data set [1] relates to A375P cells. The data set is described as follows: Galectin-3 punctae assay (lysosomal membrane permeabilization). In kind it is cell-based. Conditions: 6 hours (LLOMe 3 hr, 2 mM). The method, then: (§1) FIG. 3: Central nitrogen methylation status dictates DNA damage versus lysosomal membrane permeability. […] Cells were imaged with fluorescent microscopy, phospho-H2AX+ cells were scored using ImageJ software analysis and quantified to the right. (B) A375P cells were treated identical to the conditions in (A), with the addition of the positive control LLoMe (3 hr, 2 mM). Cells were subsequently stained with galectin-3 and imaged with fluorescent microscopy. The formation of galectin-3 punctae, which signify lysosomal membrane permeabilization, are pointed out with yellow arrows.
When lysosomes are healthy, galectin-3 is uniformly dispersed throughout the cell. However, when the lysosome is damaged, galectin-3 rapidly localizes to the site of damaged lysosomes, appearing as punctae and marking individual leaky lysosomes.

In the next data set the test system is A375P (melanoma) cells. Nature of the data set: MTT anti-proliferative assay (72 hr) in A375P cells. In kind it is cell-based. Conditions: for anti-proliferative potency / activity (comparative): A375P and PANC1 cells, FIGS. 1C and 1D. The method, then:
(§2) (A) Schematic of dimeric antimalarials (B) A375P cells were plated in a 384-well highthroughput format and treated with the quinacrine-, mefloquine- and primaquine-based compounds shown (72 hr, 1 nM-30 μM). Viability was standardized to vehicle (water) treated controls and shown are Log IC50 values calculated using GraphPad Prism. Alamar blue. (C) A375P cells were treated with the DQ compound library (72 hr, 1 nM-30 μM) MTT. (D) PANC1 cells were treated identically to (C). (E) PANC1 cells were treated with the DQ compound library as well as Lys05, Spautin and SBI-0206965 (72 hr, 3 μM). Apoptosis was assessed by Annexin-V/flow cytometry.
For MTT assays, cells were plated in 96-well plates (2,000 cells/well), allowed to adhere overnight, and subsequently treated in triplicate for 72 hours. MTT reagent (Roche) was applied, cells were solubilized and absorbance was read at 570 nm, with background subtraction at 690 nm. The clonogenic assay was performed as previously described. Briefly, cells were suspended in appropriate culture media, and plated in 6-well plates (2×10^3 cells/well). Medium was changed and drug treatment refreshed every 3-4 days for 2 weeks. Cells were subsequently stained with crystal violet and quantified.
In an attempt to improve in vivo activity, we designed a series of second-generation analogs of Lys05 to test the effect of changing each of the separate parts of the Lys05 structure on lysosomal inhibition and cytotoxicity. Replacement of the linker of Lys05 with the commercially available linker spermidine and exchanging the aromatic rings of Lys05 from CQ to the antimalarial-based heterocyclic systems primaquine (PQ), mefloquine (MQ) and quinacrine (QC) was interrogated (FIG. 1A). The dimeric antimalarial compounds were named DC (dimeric chloroquine), DM (dimeric mefloquine), DP (dimeric primaquine) and DQ (dimeric quinacrine). The dimeric compounds were named followed by three digits (m, n, r) where m signifies the number of carbons to the left of the central nitrogen, the n signifies the number of carbons on the right of the central nitrogen and the r signifies if the central nitrogen is methylated (1) or not (0). […] We generated a focused library of DQs with triamine linkers of increasing length ranging from lengths of two to eleven carbons between the QC heterocycle and the central nitrogen of the triamine linker. Both secondary and tertiary amine derivatives of each analog were generated to determine the role of central nitrogen alkylation on biological activity. A375P and PANC1 (pancreatic cancer) cells were treated with CQ, Lys05, QC and the DQ library, establishing the increase in anti-proliferative potency of DQs relative to monomeric QC. […] We observed a clear relationship between linker length and potency amongst the DQs. […] When tested in parallel to the DQs. […] PANC1 cells were treated with the panel of DQs (3 uM) as well as Spautin-1 (3 μM) and SBI-0206965 (3 μM) for 24 hours.

The subject of data set [2] is A375P cells. The data set is described as follows: phospho-H2AX immunofluorescence (DNA damage). In kind it is cell-based. The settings on record: 6 hr, 3 μM. The method, then:
as §1
The longer linked DQs can be separated into two classes based on central nitrogen substitution (secondary or tertiary amine)—those that localize to the nucleus and those that localize to the lysosome. We next sought to determine whether both classes of DQs cause DNA damage since quinacrine is known to intercalate DNA. […] Furthermore, the difference in DNA damage induced by unmethylated DQs versus the corresponding methylated DQs for each pair of compounds increase with increasing linker length.

The test system of data set [3] is 1205Lu melanoma xenografts. Nature of the data set: 1205Lu melanoma xenograft model. Conditions: 8 mg/kg i.p., 2 days on / 2 days off. In kind it is in vivo, NSG mice. The method, then: FIG. 5: DQ661 has significant single-agent in vivo activity in melanoma xenograft model. […]. Mice were randomly split into 4 arms and treated with vehicle control (water, i.p.), quinacrine (8 mg/kg, i.p.), DQ660 (8 mg/kg, i.p.) or DQ661 (8 mg/kg, i.p.). Treatments were given as shown by the black arrows, following a regimen of 2 days on treatment followed by 2 days off treatment. (C) Representative electron micrographs from melanoma xenograft tumors harvested after 2 days of treatment according to (B). (D) Average tumor volumes for each treatment arm are shown. Each point represents the mean of N=8 mice per treatment arm and the error bars represent standard error (s.e.) (C) Representative EM for tumors treated in each arm. (E) A schematic for how mice were treated in (F). […]. Mice were randomly split into 3 arms and treated with water (i.p.), DQ661 (2 mg/kg, i.p.) or DQ661 (4 mg/kg, i.p.). Treatments were give as shown by the black arrows, following a regimen of 2 days on treatment followed by 2 days […]. Tumor volume is shown. Each point represents the mean of N=8 mice per treatment arm and the error bars represent s.e. (G) Average tumor growth rate for each treatment arm are shown. (H) Protein lysate was harvested from mouse tumors at the end of the experiment and immunoblotted for LC3B, phospho-4E-BP1 T37_T65, phospho-4E-BP1 S240_S244 and Actin. Quantification of proteins standardized to control mice levels are shown to the right.
Five to seven-week old NOD-scid gamma (NSG) mice (Jackson Laboratory) were used for xenograft studies with the 1205Lu melanoma cell line. Tumor generation, tumor measurement and tumor harvesting performed as previously described (ref). For the pancreatic cancer model, five to seven-week old C57BL/6 mice (Jackson Laboratory) and maintained under pathogen-free conditions. 2×10^6 G43 cells were subcutaneously injected with an equal volume of matrigel (BD) over the right flank […] and tumors became palpable after 5-6 days. Mice were enrolled on day 6 and given Gemcitabine (120 mg/kg, i.p.). DQ661 (4 mg/kg, i.p.) was given on days 7, 8, 12, 13, 17 and 18. Perpendicular tumor diameters were measured sing electronic calipers and volume was calculated leveraging the formula L×W^2×0.5, where L is the longest dimension and W is the perpendicular dimension. All animal experiments were performed in accordance to the protocols approved by the Institute of Animal Care and Use Committee of the University of Pennsylvania.
. After 1-2 weeks, tumors were palpable and mice were treated with vehicle control (water), quinacrine (8 mg/kg), DQ660 (8 mg/kg) or DQ661 (8 mg/kg) i.p (FIG. 5A). […]. Therefore another 1205Lu xenograft experiment was performed with mice treated with either vehicle control (water, n=6) or DQ661 (2 or 4 mg/kg, n=6) for a period of 14 days (FIG. 5e, 5F).

A further data set concerns mTORC1. The data set is described as follows: Immunoblot of mTORC1 signaling and LC3B, panel of lysosomal inhibitors. The settings on record: A375P cells; for 4E-BP1 phosphorylation: PES 10 μM, PET 10 μM, Bafilomycin A1 100 nM; for mTORC1 activity (Western blotting): DQ661 3 μM, Pepstatin A 10 μG/mL, Siramesine 8 μM.
In the next data set the test system is PANC1 cells. Nature of the data set: Annexin V binding flow cytometry apoptosis assay. The class given is cell-based. Conditions: 3 μM, 24 hours. The method, then:
as §2
In an attempt to improve in vivo activity, we designed a series of second-generation analogs of Lys05 to test the effect of changing each of the separate parts of the Lys05 structure on lysosomal inhibition and cytotoxicity. Replacement of the linker of Lys05 with the commercially available linker spermidine and exchanging the aromatic rings of Lys05 from CQ to the antimalarial-based heterocyclic systems primaquine (PQ), mefloquine (MQ) and quinacrine (QC) was interrogated (FIG. 1A). The dimeric antimalarial compounds were named DC (dimeric chloroquine), DM (dimeric mefloquine), DP (dimeric primaquine) and DQ (dimeric quinacrine). […]
(Flow cytometry measures light scatter and fluorescence of single cells or particles in a stream.)

16 molecules from US10774047B2 (THE TRUSTEES OF THE UNIVERSITY OF PENNSYLVANIA, priority 2015, dated 2020) can be followed below.

Entries after “also recorded” stand apart in the source; their conditions may differ.

`COc1ccc2nc3cc(Cl)ccc3c(NCCN(C)CCNc3c4ccc(Cl)cc4nc4ccc(OC)cc34)c2c1` [DQ 221]: in the data set with 451Lu (melanoma) cells, the “effect on autophagic flux (LC3II/LC3I ratio with vs without bafilomycin-A1)” value was “autophagy inhibitors”. Moreover, the galectin-3 staining pattern result in the data set with A375P cells [1] is on record as “diffuse staining for galectin-3”. For the same molecule, the “anti-proliferative potency / activity (comparative)” value in the data set on A375P (melanoma) cells is “same activity as monomeric QC; also recorded: potency was equal to monomeric quinacrine”. `COc1ccc2nc3cc(Cl)ccc3c(NCCCNCCCNc3c4ccc(Cl)cc4nc4ccc(OC)cc34)c2c1` [DQ 330]: in the data set with A375P (melanoma) cells, the “anti-proliferative potency / activity (comparative)” value was “significant increase in anti-proliferative potency”. For `COc1ccc2nc3cc(Cl)ccc3c(NCCCCNCCCNc3c4ccc(Cl)cc4nc4ccc(OC)cc34)c2c1` [DQ 340], the “IC50, anti-proliferative activity” value with A375P (melanoma) cells (A375P cells, FIG. 1B) is reported as “low nanomolar”. Consider `COc1ccc2nc3cc(Cl)ccc3c(NCCCCN(C)CCCNc3c4ccc(Cl)cc4nc4ccc(OC)cc34)c2c1` [DQ 341], for which the “effect on autophagic flux (LC3II/LC3I ratio with vs without bafilomycin-A1)” value with 451Lu (melanoma) cells was “autophagy inhibitors”. As to `COc1ccc2nc3cc(Cl)ccc3c(NCCCCN(C)CCCCNc3c4ccc(Cl)cc4nc4ccc(OC)cc34)c2c1` [DQ 441], the “effect on autophagic flux (LC3II/LC3I ratio with vs without bafilomycin-A1)” value in the data set with 451Lu (melanoma) cells is reported as “autophagy inhibitors”. With `COc1ccc2nc3cc(Cl)ccc3c(NCCCCCNCCCCCNc3c4ccc(Cl)cc4nc4ccc(OC)cc34)c2c1` [DQ 550], in the data set with A375P cells [1], the galectin-3 staining pattern entry is “diffuse staining for galectin-3”. In addition, the “DNA damage (phospho-H2AX, γ-H2AX)” value with A375P cells [2] is “significantly greater levels of DNA damage relative to their methylated counterparts”. In the case of `COc1ccc2nc3cc(Cl)ccc3c(NCCCCCN(C)CCCCCNc3c4ccc(Cl)cc4nc4ccc(OC)cc34)c2c1` [DQ 551], the “effect on autophagic flux (LC3II/LC3I ratio with vs without bafilomycin-A1)” value in the data set with 451Lu (melanoma) cells is “autophagy inhibitors”. The galectin-3 staining pattern result in the data set on A375P cells [1] is on record as “punctate distribution of galectin-3”. As to `COc1ccc2nc3cc(Cl)ccc3c(NCCCCCCNCCCCCCNc3c4ccc(Cl)cc4nc4ccc(OC)cc34)c2c1` [DQ 660], in data set [3], the tumor growth result is listed as “modest but significant growth impairment of tumors”. Further, the galectin-3 staining pattern entry in the data set with A375P cells [1] is reported as “diffuse staining for galectin-3”. Further, in the data set on A375P cells [2], the “DNA damage (phospho-H2AX, γ-H2AX)” value is reported as “significantly greater levels of DNA damage relative to their methylated counterparts”.

As to `COC(=O)[C@H](CC(C)C)NC(=O)[C@@H](N)CC(C)C` [LLOMe, L-leucyl-L-leucine methyl ester, reference compound], the galectin-3 staining pattern result with A375P cells [1] is given as “punctate distribution of galectin-3”. Regarding `NS(=O)(=O)C#Cc1ccccc1` [PES], the 4E-BP1 phosphorylation entry with mTORC1 is on record as “hyperphosphorylation of 4E-BP1”. For `CNC(=O)c1ccccc1Oc1nc(Nc2cc(OC)c(OC)c(OC)c2)ncc1Br` [SBI-0206965, reference compound], the “apoptosis (annexin V)” value in the data set on PANC1 cells is “did not induce significant levels of apoptosis”. In the data set with A375P (melanoma) cells, the “anti-proliferative potency / activity (comparative)” value was “did not have significantly increased anti-cancer activity relative to monomeric chloroquine or monomeric quinacrine”. Regarding `Fc1ccc(-n2cc(CCCCN3CCC4(CC3)OCc3ccccc34)c3ccccc32)cc1` [Siramesine], the “mTORC1 activity (Western blotting)” value in the data set on mTORC1 was “did not inhibit mTORC1 activity”. Turning to `Fc1ccc(CNc2ncnc3ccc(F)cc23)cc1` [Spautin-1, reference compound], in the data set on PANC1 cells, the “apoptosis (annexin V)” value is reported as “did not induce significant levels of apoptosis”. In addition, in the data set on A375P (melanoma) cells, the “anti-proliferative potency / activity (comparative)” value is recorded as “did not have significantly increased anti-cancer activity relative to monomeric chloroquine or monomeric quinacrine”.

On to `CCN(CC)CCCC(C)Nc1c2ccc(Cl)cc2nc2ccc(OC)cc12` (centres unmarked) [quinacrine, reference compound], for which, in data set [3], the tumor growth entry is given as “no significant effect on tumor growth compared to vehicle control”. Moreover, the “effect on autophagic flux (LC3II/LC3I ratio with vs without bafilomycin-A1)” value in the data set with 451Lu (melanoma) cells is “induces autophagic flux”. Further, the galectin-3 staining pattern result with A375P cells [1] is “diffuse staining for galectin-3”. In the case of Bafilomycin, the 4E-BP1 phosphorylation entry in the data set with mTORC1 is recorded as “hyperphosphorylation of 4E-BP1”. Regarding Pepstatin A, in the data set with mTORC1, the “mTORC1 activity (Western blotting)” value is “did not significantly affect mTORC1 activity”.
